# In PubChem BioAssay (NCI):
#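 These data come from cells grown in 96-well plates and exposed to compound for 48 hours at five concentrations. At the TGI there is no net growth.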
# Tests used:
# Test in all cases: NCI tumour cell line growth inhibition, 48 h
# UACC-62 melanoma = system: UACC-62 melanoma
# NCI-H522 lung = system: NCI-H522 lung
# SK-MEL-28 melanoma = system: SK-MEL-28 melanoma
# SF-295 CNS = system: SF-295 CNS
# MDA-MB-231 breast = system: MDA-MB-231 breast
# NCI/ADR-RES ovarian = system: NCI/ADR-RES ovarian
# CCRF-CEM leukemia = system: CCRF-CEM leukemia
# SK-MEL-2 melanoma = system: SK-MEL-2 melanoma
# K-562 leukemia = system: K-562 leukemia
# MDA-N = system: MDA-N
# OVCAR-8 ovarian = system: OVCAR-8 ovarian
# CAKI-1 renal = system: CAKI-1 renal
# NCI-H23 lung = system: NCI-H23 lung
# TK-10 renal = system: TK-10 renal
# SF-268 CNS = system: SF-268 CNS
# HCT-15 colon = system: HCT-15 colon
# RXF 393 renal = system: RXF 393 renal
# SNB-19 CNS = system: SNB-19 CNS
# BT-549 breast = system: BT-549 breast
# SK-OV-3 ovarian = system: SK-OV-3 ovarian
# KM12 colon = system: KM12 colon
# OVCAR-5 ovarian = system: OVCAR-5 ovarian
# M14 melanoma = system: M14 melanoma
# COLO 205 colon = system: COLO 205 colon
# A498 renal = system: A498 renal
# MCF7 breast = system: MCF7 breast
# HCC-2998 colon = system: HCC-2998 colon
# U251 CNS = system: U251 CNS
# SK-MEL-5 melanoma = system: SK-MEL-5 melanoma
# NCI-H460 lung = system: NCI-H460 lung
# IGROV1 ovarian = system: IGROV1 ovarian
# SN12C renal = system: SN12C renal
# SR leukemia = system: SR leukemia
# OVCAR-3 ovarian = system: OVCAR-3 ovarian
# MALME-3M melanoma = system: MALME-3M melanoma
# MDA-MB-435 = system: MDA-MB-435
# PC-3 prostate = system: PC-3 prostate
# HOP-62 NSCLC = system: HOP-62 NSCLC
# EKVX NSCLC = system: EKVX NSCLC
# HT29 colon = system: HT29 colon
# SNB-75 CNS = system: SNB-75 CNS
# HOP-92 NSCLC = system: HOP-92 NSCLC
# UO-31 renal = system: UO-31 renal
# SF-539 CNS = system: SF-539 CNS
# SW-620 colon = system: SW-620 colon
# A549 NSCLC = system: A549 NSCLC
# UACC-257 melanoma = system: UACC-257 melanoma
# NCI-H226 lung = system: NCI-H226 lung
# ACHN renal = system: ACHN renal
# MOLT-4 leukemia = system: MOLT-4 leukemia
# OVCAR-4 ovarian = system: OVCAR-4 ovarian
# RPMI-8226 leukemia = system: RPMI-8226 leukemia
# LOX IMVI melanoma = system: LOX IMVI melanoma
# 786-0 renal = system: 786-0 renal
# HCT-116 colon = system: HCT-116 colon
# T-47D breast = system: T-47D breast
# HS 578T breast = system: HS 578T breast
# DU-145 prostate = system: DU-145 prostate
# HL-60(TB) leukemia = system: HL-60(TB) leukemia
smiles,measurement,setting,value
Cn1cnc(/C=C/C#N)c1,TGI,UACC-62 melanoma,> 100 µM
same,TGI,NCI-H522 lung,> 100 µM
same,TGI,SK-MEL-28 melanoma,> 100 µM
same,TGI,SF-295 CNS,> 100 µM
same,TGI,MDA-MB-231 breast,> 100 µM
same,TGI,NCI/ADR-RES ovarian,> 100 µM
same,TGI,CCRF-CEM leukemia,> 100 µM
same,TGI,SK-MEL-2 melanoma,> 100 µM
same,TGI,K-562 leukemia,> 100 µM
same,TGI,MDA-N,> 100 µM
same,TGI,OVCAR-8 ovarian,> 100 µM
same,TGI,CAKI-1 renal,> 100 µM
same,TGI,NCI-H23 lung,> 100 µM
same,TGI,TK-10 renal,> 100 µM
same,TGI,SF-268 CNS,> 100 µM
same,TGI,HCT-15 colon,> 100 µM
same,TGI,RXF 393 renal,> 100 µM
same,TGI,SNB-19 CNS,> 100 µM
same,TGI,BT-549 breast,> 100 µM
same,TGI,SK-OV-3 ovarian,> 100 µM
same,TGI,KM12 colon,> 100 µM
same,TGI,OVCAR-5 ovarian,> 100 µM
same,TGI,M14 melanoma,> 100 µM
same,TGI,COLO 205 colon,> 100 µM
same,TGI,A498 renal,> 100 µM
same,TGI,MCF7 breast,> 100 µM
same,TGI,HCC-2998 colon,> 100 µM
same,TGI,U251 CNS,> 100 µM
same,TGI,SK-MEL-5 melanoma,> 100 µM
same,TGI,NCI-H460 lung,> 100 µM
same,TGI,IGROV1 ovarian,> 100 µM
same,TGI,SN12C renal,> 100 µM
same,TGI,SR leukemia,> 100 µM
same,TGI,OVCAR-3 ovarian,> 100 µM
same,TGI,MALME-3M melanoma,> 100 µM
same,TGI,MDA-MB-435,> 100 µM
same,TGI,PC-3 prostate,> 100 µM
same,TGI,HOP-62 NSCLC,> 100 µM
same,TGI,EKVX NSCLC,> 100 µM
same,TGI,HT29 colon,> 100 µM
same,TGI,SNB-75 CNS,> 100 µM
same,TGI,HOP-92 NSCLC,> 100 µM
same,TGI,UO-31 renal,> 100 µM
same,TGI,SF-539 CNS,> 100 µM
same,TGI,SW-620 colon,> 100 µM
same,TGI,A549 NSCLC,> 100 µM
same,TGI,UACC-257 melanoma,> 100 µM
same,TGI,NCI-H226 lung,> 100 µM
same,TGI,ACHN renal,> 100 µM
same,TGI,MOLT-4 leukemia,> 100 µM
same,TGI,OVCAR-4 ovarian,> 100 µM
Cc1ccc(C2(N3CCOCC3)OC(C)(C)c3cccc4cccc2c34)cc1 (configuration not stated),TGI,UACC-62 melanoma,27.8 µM
same,TGI,NCI-H522 lung,30.8 µM
same,TGI,SF-295 CNS,33.6 µM
same,TGI,NCI/ADR-RES ovarian,31.2 µM
same,TGI,CCRF-CEM leukemia,65.7 µM
same,TGI,SK-MEL-2 melanoma,30.5 µM
same,TGI,K-562 leukemia,> 100 µM
same,TGI,MDA-N,34.1 µM
same,TGI,OVCAR-8 ovarian,33.6 µM
same,TGI,RPMI-8226 leukemia,37.9 µM
same,TGI,LOX IMVI melanoma,31 µM
same,TGI,CAKI-1 renal,50.1 µM
same,TGI,786-0 renal,32.4 µM
same,TGI,NCI-H23 lung,34.9 µM
same,TGI,TK-10 renal,39 µM
same,TGI,SF-268 CNS,28.7 µM
same,TGI,HCT-15 colon,40 µM
same,TGI,RXF 393 renal,31.5 µM
same,TGI,SNB-19 CNS,32.6 µM
same,TGI,BT-549 breast,33.6 µM
same,TGI,SK-OV-3 ovarian,31.2 µM
same,TGI,HCT-116 colon,36.9 µM
same,TGI,KM12 colon,57.2 µM
same,TGI,OVCAR-5 ovarian,34.4 µM
same,TGI,M14 melanoma,32.7 µM
same,TGI,COLO 205 colon,31 µM
same,TGI,A498 renal,32.9 µM
same,TGI,MCF7 breast,33.2 µM
same,TGI,T-47D breast,60.4 µM
same,TGI,U251 CNS,30.7 µM
same,TGI,SK-MEL-5 melanoma,35.1 µM
same,TGI,NCI-H460 lung,30.2 µM
same,TGI,IGROV1 ovarian,35.2 µM
same,TGI,SN12C renal,32.5 µM
same,TGI,HS 578T breast,46 µM
same,TGI,SR leukemia,> 100 µM
same,TGI,OVCAR-3 ovarian,34.4 µM
same,TGI,MALME-3M melanoma,36.9 µM
same,TGI,MDA-MB-435,32.6 µM
same,TGI,PC-3 prostate,34.2 µM
same,TGI,HOP-62 NSCLC,32.9 µM
same,TGI,EKVX NSCLC,29.2 µM
same,TGI,HT29 colon,31.8 µM
same,TGI,SNB-75 CNS,30.5 µM
same,TGI,HOP-92 NSCLC,25.5 µM
same,TGI,UO-31 renal,31 µM
same,TGI,SF-539 CNS,34.8 µM
same,TGI,SW-620 colon,37 µM
same,TGI,A549 NSCLC,29 µM
same,TGI,UACC-257 melanoma,34.6 µM
same,TGI,DU-145 prostate,37 µM
same,TGI,NCI-H226 lung,35.8 µM
same,TGI,ACHN renal,31.6 µM
same,TGI,HL-60(TB) leukemia,> 100 µM
same,TGI,MOLT-4 leukemia,> 100 µM
same,TGI,OVCAR-4 ovarian,31.1 µM
